Assay [1] has as its target T1, Akt1 kinase (Homo sapiens, UniProt P31749).
T1 construct: a middle T tag was added to the 5′ end of the full length Akt1 gene; biotin tag (from pS2neo vector); made in house; host or cells: Drosophila S2 cells
Description: Akt kinase assay (HTRF, GSK-derived biotinylated peptide substrate). The assay is classed as biochemical. The following applies: activated Akt1 kinase. The method, then:
(§1) Activated Akt isoforms and pleckstrin homology domain deletion constructs were assayed utilizing a GSK-derived biotinylated peptide substrate. The extent of peptide phosphorylation was determined by Homogeneous Time Resolved Fluorescence (HTRF) using a lanthanide chelate(Lance)-coupled monoclonal antibody specific for the phosphopeptide in combination with a streptavidin-linked allophycocyanin (SA-APC) fluorophore which will bind to the biotin moiety on the peptide. When the Lance and APC are in proximity (i.e. bound to the same phosphopeptide molecule), a non-radiative energy transfer takes place from the Lance to the APC, followed by emission of light from APC at 665 nm.
(§2) Materials Required for the Assay:
(§3) A. Activated Akt isozyme or pleckstrin homology domain deleted construct
(§4) B. Akt peptide substrate: GSK3α (S21) Peptide #3928 biotin-GGRARTSSFAEPG (SEQ. ID. NO.:15), Macromolecular Resources.
(§5) C. Lance labeled anti-phospho GSK3α monoclonal antibody (Cell Signaling Technology, clone #27).
(§6) D. SA-APC (Prozyme catalog no. MS lot #896067).
(§7) E. Microfluor®B U Bottom Microtiter Plates (Dynex Technologies, Catalog no. 7205).
(§8) F. Discovery® HTRF Microplate Analyzer, Packard Instrument Company.
(§9) G. 100× Protease Inhibitor Cocktail (PIC): 1 mg/mL benzamidine, 0.5 mg/mL pepstatin, 0.5 mg/mL leupeptin, 0.5 mg/mL aprotinin.
(§10) H. 10× Assay Buffer: 500 mM HEPES, pH 7.5, 1% PEG, […], 1 mM EGTA, 1% BSA, 20 mM ∂-Glycerol phosphate.
(§11) I. Quench Buffer: 50 mM HEPES pH 7.3, 16.6 mM EDTA, 0.1% BSA, 0.1% Triton X-100, 0.17 nM Lance labeled monoclonal antibody clone #27, 0.0067 mg/mL SA-APC
(§12) J. ATP/MgCl2 working solution: 1× Assay buffer, 1 mM DTT, 1×PIC, 125 mM KCl, 5% Glycerol, 25 mM MgCl2, 375 μM ATP
(§13) K. Enzyme working solution: 1× Assay buffer, 1 mM DTT, 1×PIC, 5% Glycerol, active Akt. The final enzyme concentrations were selected so that the assay was in a linear response range.
(§14) L. Peptide working solution: 1× Assay buffer, 1 mM DTT, 1×PIC, 5% Glycerol, 2 μM GSK3 biotinylated peptide #3928
(§15) The reaction is assembled by adding […] of the ATP/MgCl2 working solution to the appropriate wells of a 96-well microtiter plate. Inhibitor or vehicle (1.0 μL) is added followed by 10 μL of peptide working solution. The reaction is started by adding 13 μl, of the enzyme working solution and mixing. The reaction is allowed to proceed for 50 min and then stopped by the addition of 60 μL, HTRF quench buffer. The stopped reactions were incubated at room temperature for at least 30 min and then read on the Discovery instrument.

The target of assay [2] is T2, Akt2 kinase (Homo sapiens, UniProt P31751).
T2 construct: a middle T tag was added to the 5′ end of the full length Akt2 using the PCR primer; biotin tag (from pS2neo vector); made in house; host or cells: Drosophila S2 cells
The assay is described as above. In kind it is biochemical. The conditions noted are these: activated Akt2 kinase. As for the experimental part: as §1, §2, §3, §4, §5, §6, §7, §8, §9, §10, §11, §12, §13, §14, §15

T2 sequence (P31751 whole entry): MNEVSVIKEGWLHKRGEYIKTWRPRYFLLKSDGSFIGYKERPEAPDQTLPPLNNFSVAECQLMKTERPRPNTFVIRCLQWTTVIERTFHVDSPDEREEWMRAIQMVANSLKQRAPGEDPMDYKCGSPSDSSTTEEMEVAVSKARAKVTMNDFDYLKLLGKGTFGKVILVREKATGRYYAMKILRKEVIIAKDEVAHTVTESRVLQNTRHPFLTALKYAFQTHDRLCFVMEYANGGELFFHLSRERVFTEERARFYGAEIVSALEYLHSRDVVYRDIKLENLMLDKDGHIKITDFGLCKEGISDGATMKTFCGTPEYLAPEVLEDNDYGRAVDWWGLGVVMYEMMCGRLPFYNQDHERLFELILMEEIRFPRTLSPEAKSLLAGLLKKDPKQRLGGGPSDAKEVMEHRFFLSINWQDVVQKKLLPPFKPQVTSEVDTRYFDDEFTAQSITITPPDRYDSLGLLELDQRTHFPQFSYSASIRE
T1 sequence (P31749 whole entry): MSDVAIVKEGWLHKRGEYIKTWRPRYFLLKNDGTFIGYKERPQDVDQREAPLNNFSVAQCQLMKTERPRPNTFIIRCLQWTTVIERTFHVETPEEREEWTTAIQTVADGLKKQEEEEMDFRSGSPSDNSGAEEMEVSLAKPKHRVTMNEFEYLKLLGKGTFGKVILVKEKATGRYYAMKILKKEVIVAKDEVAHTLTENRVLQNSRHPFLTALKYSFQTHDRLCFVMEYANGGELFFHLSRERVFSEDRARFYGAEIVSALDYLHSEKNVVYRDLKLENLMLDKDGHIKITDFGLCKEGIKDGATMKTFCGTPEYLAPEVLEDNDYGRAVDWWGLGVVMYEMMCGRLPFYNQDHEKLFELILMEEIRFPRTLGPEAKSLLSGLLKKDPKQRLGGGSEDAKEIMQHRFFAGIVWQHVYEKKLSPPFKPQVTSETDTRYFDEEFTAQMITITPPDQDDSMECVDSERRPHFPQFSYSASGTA

Regarding `NC1(c2ccc(-c3nc4ccn5c(-c6ncccn6)nnc5c4cc3-c3ccccc3)cc2)CC(F)(F)C1` [EXAMPLE 2-10, 3,3-difluoro-1-{4-[9-phenyl-3-(2-pyrimidinyl)[1,2,4]triazolo[3,4-f]-1,6-naphthyridin-8-yl]phenyl}cyclobutanamine], the 50% inhibitory concentration (IC50) in assay [1] was determined as 6 nM; in assay [2] it was 44.4 nM.

For the compound `N[C@]1(c2ccc(-c3nc4ccn5c(-c6ncccn6)nnc5c4cc3-c3ccccc3)cc2)C[C@](O)(C2CC2)C1` [EXAMPLE 2-14, trans-3-amino-1-cyclopropyl-3-{-4-[9-phenyl-3-(2-pyrimidinyl)-[1,2,4]triazolo[3,4-f]-1,6-naphthyridin-8-yl]phenyl}cyclobutanol], the IC50 in assay [1] is 0.3 nM; in assay [2], 4 nM.

With `C[C@]1(O)C[C@@](N)(c2ccc(-c3nc4ccc5nnc(-c6cccnc6)n5c4nc3-c3ccccc3)cc2)C1` [EXAMPLE 3-7, trans-3-amino-1-methyl-3-{4-[2-phenyl-9-(3-pyridinyl)[1,2,4]triazolo-[4′,3′:1,6]pyrido[2,3-b]pyrazin-3-yl]phenyl}cyclobutanol], the IC50 in assay [1] turned out to be 0.4 nM; in assay [2], 4 nM.

As for `N[C@]1(c2ccc(-c3nc4ccc5nnc(-c6ccc(O)cc6)n5c4nc3-c3ccccc3)cc2)C[C@](O)(C2CC2)C1` [EXAMPLE 3-14, 4-{3-[4-(trans-1-amino-3-cyclopropyl-3-hydroxycyclobutyl)phenyl]-2-phenyl[1,2,4]triazolo[4′,3′:1,6]pyrido[2,3-b]pyrazin-9-yl]phenol], the IC50 in assay [1] stood at 0.3 nM; in assay [2] it was 11 nM.

Consider `NC1(c2ccc(-c3nc4ccc5nnc(CCC(F)(F)F)n5c4nc3-c3ccccc3)cc2)CC(O)(C2CC2)C1` (stereo not drawn) [EXAMPLE 3-20, trans-3-amino-1-cyclopropyl-3-{4-[2-phenyl-9-(3,3,3-trifluoropropyl)[1,2,4]triazolo[4′,3′:1,6]pyrido[2,3-b]pyrazin-3-yl]phenyl}cyclobutanol], for which the IC50 in assay [1] was 0.5 nM; in assay [2] it was 6.3 nM.

As for `Cc1nc(-c2nnc3c4cc(-c5ccccc5)c(-c5ccc(C6(N)CC(F)(F)C6)cc5)nc4ccn23)n[nH]1` [EXAMPLE 5-16, 3,3-difluoro-1-{4-[3-(5-methyl-1H-1,2,4-triazol-3-yl)-9-phenyl[1,2,4]triazolo[3,4-f]-1,6-naphthyridin-8-yl]phenyl}cyclobutanamine], the IC50 turned out to be 4.7 nM in assay [1] and 84.3 nM in assay [2].

As usually defined, the IC50 is the concentration that gives 50% inhibition.

The values above are taken from patent US8207169B2, “Substituted [1,2,4]triazolo[4′,3′:1,6]pyrido[2,3-b]pyrazines of the formula D” (MSD K.K., priority 2008, dated 2012).
